This experiment deals with T1, RORγ LBD-GST tagged (Homo sapiens, UniProt P51449).
T1 construct: RORγ LBD-GST tagged (Cat No. RORC-114H, Creative Biomart); purchased Creative Biomart RORC-114H
T1 sequence (P51449 269-508 limits assumed): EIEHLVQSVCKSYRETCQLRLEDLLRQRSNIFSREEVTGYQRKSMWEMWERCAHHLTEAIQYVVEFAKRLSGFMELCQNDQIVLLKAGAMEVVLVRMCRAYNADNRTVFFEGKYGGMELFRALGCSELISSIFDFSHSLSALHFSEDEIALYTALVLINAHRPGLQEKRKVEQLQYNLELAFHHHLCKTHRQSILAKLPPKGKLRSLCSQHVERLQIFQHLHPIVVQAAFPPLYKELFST
Briefly: LanthaScreen TR-FRET RORγ coactivator assay. In kind it is biochemical. The conditions noted are these: Fluorescein-D22 coactivator peptide, 1 hour room temperature. The text has this: LanthaScreen TR-FRET Retinoid-Related Orphan Receptor Gamma (RORγ) Coactivator Assay Materials and Reagents • 1. […] Fluorescein-D22 coactivator peptide (Cat No. PV4386, Invitrogen) • 3. LanthaScreen™ Tb anti-GST antibody (Cat No. PV3550, Invitrogen) • 4. TR-FRET coregulatory buffer D (Cat No, PV4420, Invitrogen) • 5. DTT (Cat No. P2325, Fisher) • 6. […] Tecan Infinite M1000 plate reader (Tecan) Experimental Procedure Prepare Complete TR-FRET Coregulator Buffer D by adding 1 M DTT to TR-FRET Coregulator Buffer D to the final concentration of 5 mM DTT. Make compound dilution in Complete TR-FRET Coregulator Buffer D. Highest dose is 3 μM, 7-folder dilution for total 7 doses. Add 10 μL to each well of a 384-well plate. For the negative and positive controls, add 10 μL of Complete TR-FRET Coregulator Buffer D. Prepare RORγ LBD using Complete TR-FRET Coregulator Buffer D. The final concentration of RORγ LBD is 25 ng/reaction. Add 5 μL RORγ LBD to all the wells of the 384-well assay plate except negative wells which adding 5 μL Complete TR-FRET Coregulator Buffer D. Prepare a solution containing 0.6 μM Fluorescein-D22 and 8 nM Tb anti-GST antibody using Complete TR-FRET Coregulator Buffer D. Add 5 μL to all wells of the 384-well assay plate. Briefly and gently mix the 384-well plate on a plate shaker and incubate at room temperature protected from light for 1 hour. The plate may be sealed with a cover to minimize evaporation. Read the plate at wavelengths of 520 nm and 495 nm on Tecan Infinite M1000. IC50 values were calculated using GraphPad Prism by plotting the logarithm of compounds concentration versus percent inhibition.
For the compound `CC(C)Oc1ccccc1-c1cc2nc(C(CC(N)=O)c3ccc(S(=O)(=O)CC4CC4)cc3)[nH]c2cc1Cl` (single isomer, unassigned) [3-(6-chloro-5-(2-isopropoxyphenyl)-1H-benzo[d]imidazol-2-yl)-3-(4-((cyclopropylmethyl)sulfonyl)phenyl)propanamide], the IC50 was 1.41 µM.
The result for `CC(C)S(=O)(=O)c1ccc(Cc2nc3c(Cl)c(-c4ccccc4OC(F)(F)F)c(Cl)cc3[nH]2)cc1` [Example 104] reads 0.337 µM; that for `CCS(=O)(=O)c1ccc(Cc2nc3c(F)c(-c4ccccc4OC(F)(F)F)c(F)cc3[nH]2)cc1` [Example 108, 2-(4-(ethylsulfonyl)benzyl)-4,6-difluoro-5-(2-(trifluoromethoxy)phenyl)-1H-benzo[d]imidazole], 0.032 µM; that for `CCS(=O)(=O)c1ccc(C(NC(=O)c2c(C)noc2C)c2nc3c(Cl)c(-c4ccccc4OC(F)F)c(Cl)cc3[nH]2)cc1` (stereo not drawn) [Example 42, N-((4,6-dichloro-5-(2-(difluoromethoxy)phenyl)-1H-benzo[d]imidazol-2-yl)(4-(ethylsulfonyl)phenyl)methyl)-3,5-dimethylisoxazole-4-carboxamide], 0.113 µM.
The result for `CCS(=O)(=O)c1ccc(Cc2nc3c(Cl)c(-c4ccccc4N(C)C)c(Cl)cc3[nH]2)cc1` [Example 27, 2-(4,6-dichloro-2-(4-(ethylsulfonyl)benzyl)-1H-benzo[d]imidazol-5-yl)-N,N-dimethylaniline] reads 0.489 µM; that for `CCS(=O)(=O)c1ccc(C(CO)c2nc3c(Cl)c(-c4ccccc4OC(F)(F)F)c(Cl)cc3[nH]2)c(Cl)c1` (stereo not drawn) [Example 87, 2-(2-chloro-4-(ethylsulfonyl)phenyl)-2-(4,6-dichloro-5-(2-(trifluoromethoxy)phenyl)-1H-benzo[d]imidazol-2-yl)ethanol], 0.024 µM.
For `CCS(=O)(=O)c1ccc(Cc2nc3c(Cl)c(-c4ccccc4OC(F)(F)F)c(Cl)cc3[nH]2)c(F)c1` [Example 76, 4,6-dichloro-2-(4-(ethylsulfonyl)-2-fluorobenzyl)-5-(2-(trifluoromethoxy)phenyl)-1H-benzo[d]imidazole], the IC50 stood at 0.387 µM.
`CCS(=O)(=O)c1ccc(Cc2nc3c(Cl)c(-c4ccccc4OC(F)F)c(Cl)cc3[nH]2)cc1` [Example 28, 4,6-dichloro-5-(2-(difluoromethoxy)phenyl)-2-(4-(ethylsulfonyl)benzyl)-1H-benzo[d]imidazole] had an IC50 of 0.045 µM.
Compound `CCS(=O)(=O)c1ccc(C(O)c2nc3c(Cl)c(-c4ccccc4OC(C)C)c(Cl)cc3[nH]2)cc1` (stereo not drawn) [Example 10, (4,6-dichloro-5-(2-isopropoxyphenyl)-1H-benzo[d]imidazol-2-yl)(4-(ethylsulfonyl)phenyl)methanol] gave an IC50 of 0.056 µM. The IC50 values of the last two compounds are within 1.5-fold of each other.
The result for `CCS(=O)(=O)c1ccc(Cc2nc3c(Cl)c(-c4ccccc4OC(F)F)c(Cl)cc3[nH]2)c(F)c1` [Example 83, 4,6-dichloro-5-(2-(difluoromethoxy)phenyl)-2-(4-(ethylsulfonyl)-2-fluorobenzyl)-1H-benzo[d]imidazole] reads 0.065 µM; that for `N#Cc1ccccc1-c1c(Cl)cc2[nH]c(Cc3ccc(S(=O)(=O)CC4CC4)cc3)nc2c1Cl` [Example 95, 2-(4,6-dichloro-2-(4-((cyclopropylmethyl)sulfonyl)benzyl)-1H-benzo[d]imidazol-5-yl)benzonitrile], 0.065 µM.
With `CCOc1ccccc1-c1c(Cl)cc2[nH]c(C(CO)c3ccc(S(=O)(=O)CC)cc3)nc2c1Cl` (stereo not drawn) [Example 17, 2-(4,6-dichloro-5-(2-ethoxyphenyl)-1H-benzo[d]imidazol-2-yl)-2-(4-(ethylsulfonyl)phenyl)ethanol], the midpoint of inhibition, the IC50, lay at 0.097 µM.
Next, `N#Cc1ccccc1-c1c(Cl)cc2[nH]c(C(O)c3ccc(S(=O)(=O)CC4CC4)cc3)nc2c1Cl` (stereo not drawn) [Example 97, 2-(4,6-dichloro-2-((4-((cyclopropylmethyl)sulfonyl)phenyl)(hydroxy)methyl)-1H-benzo[d]imidazol-5-yl)benzonitrile]: 0.001 µM; `CC(C)S(=O)(=O)c1ccc(C(CO)c2nc3c(Cl)c(-c4ccccc4C(F)(F)F)c(Cl)cc3[nH]2)cc1` (stereo not drawn) [Example 107]: 0.055 µM.
For `CCS(=O)(=O)c1ccc(C(NC(C)=O)c2nc3c(Cl)c(-c4ccccc4OC(F)F)c(Cl)cc3[nH]2)cc1` (stereo not drawn) [Example 40, N-((4,6-dichloro-5-(2-(difluoromethoxy)phenyl)-1H-benzo[d]imidazol-2-yl)(4-(ethylsulfonyl)phenyl)methyl)acetamide], half-maximal inhibition (IC50) was put at 0.083 µM.
As for `O=S(=O)(CCF)c1ccc(C(CO)c2nc3c(Cl)c(-c4ccccc4C(F)(F)F)c(Cl)cc3[nH]2)cc1` (stereo not drawn) [Example 64, 2-(4,6-dichloro-5-(2-(trifluoromethyl)phenyl)-1H-benzo[d]imidazol-2-yl)-2-(4-((2-fluoroethyl)sulfonyl)phenyl)ethanol], half-maximal inhibition (IC50) required 0.465 µM.
`CCS(=O)(=O)c1ccc(Cc2nc3c(Cl)c(-c4ccsc4)c(Cl)cc3[nH]2)cc1` [Example 24, 4,6-dichloro-2-(4-(ethylsulfonyl)benzyl)-5-(thiophen-3-yl)-1H-benzo[d]imidazole] gave an IC50 of 0.701 µM.
Next, `CCS(=O)(=O)c1ccc(C(CO)c2nc3c(C)c(-c4ccccc4C(F)(F)F)c(C)cc3[nH]2)cc1` (stereo not drawn) [Example 116, 2-(4,6-dimethyl-5-(2-(trifluoromethyl)phenyl)-1H-benzo[d]imidazol-2-yl)-2-(4-(ethylsulfonyl)phenyl)ethanol]: 0.235 µM; `CCS(=O)(=O)c1ccc(C(CO)c2nc3cc(-c4ccccc4OC(F)(F)F)c(F)cc3[nH]2)cc1` (stereo not drawn) [Example 120, 2-(4-(ethylsulfonyl)phenyl)-2-(6-fluoro-5-(2-(trifluoromethoxy)phenyl)-1H-benzo[d]imidazol-2-yl)ethanol]: 0.321 µM; `CCS(=O)(=O)c1ccc(C(CO)c2nc3c(F)c(-c4ccccc4OC(F)(F)F)c(F)cc3[nH]2)cc1` (stereo not drawn) [Example 109, 2-(4,6-difluoro-5-(2-(trifluoromethoxy)phenyl)-1H-benzo[d]imidazol-2-yl)-2-(4-(ethylsulfonyl)phenyl)ethanol]: 1.04 µM.
`CS(=O)(=O)c1ccc(C(O)c2nc3c(Cl)c(-c4ccccc4OC(F)(F)F)c(Cl)cc3[nH]2)c(Cl)c1` (stereo not drawn) [Example 103, (2-chloro-4-(methylsulfonyl)phenyl)(4,6-dichloro-5-(2-(trifluoromethoxy)phenyl)-1H-benzo[d]imidazol-2-yl)methanol] showed an IC50 of 0.158 µM.
The result for `CCS(=O)(=O)c1ccc(Cc2nc3c(Cl)c(-c4ccccc4OC(F)F)c(Cl)cc3[nH]2)c(Cl)c1` [Example 89, 4,6-dichloro-2-(2-chloro-4-(ethylsulfonyl)benzyl)-5-(2-(difluoromethoxy)phenyl)-1H-benzo[d]imidazole] reads 0.004 µM; that for `CCS(=O)(=O)c1ccc(C(O)c2nc3c(Cl)c(-c4ccccc4F)c(Cl)cc3[nH]2)cc1` (stereo not drawn) [Example 12, (4,6-dichloro-5-(2-fluorophenyl)-1H-benzo[d]imidazol-2-yl)(4-(ethylsulfonyl)phenyl)methanol], 0.106 µM.
Compound `COCCS(=O)(=O)c1ccc(C(CO)c2nc3c(Cl)c(-c4ccccc4OC(F)(F)F)c(Cl)cc3[nH]2)cc1` (stereo not drawn) [Example 54, 2-(4,6-dichloro-5-(2-(trifluoromethoxy)phenyl)-1H-benzo[d]imidazol-2-yl)-2-(4-((2-methoxyethyl)sulfonyl)phenyl)ethanol] had an IC50 of 0.367 µM.

For the origin of these results see patent publication US12187684B2, “Benzimidazole derivatives as modulators of retinoid-related orphan receptor gamma (RORγ) and pharmaceutical use thereof” (Jiangsu Hengrui Medicine Co., Ltd., priority 2018, dated 2025).
